Assay results as given in patent US20200206257A1, “HOMOGENEOUS POLY[…]-B4, DERIVED FROM HERBA EPHEDRA, PREPARATION METHOD AND MEDICAL USE THEREOF” (priority 2018, published 2020).
Several values for one entry are separate records, joined by “and”; a condition that tells them apart may be missing. Equal values may be shown once.

How the values were obtained:
[1] = tested on: Escherichia coli-induced pneumonia in mice; test: Escherichia coli-induced pneumonia in mice, inflammatory factors in lung tissue homogenate; type: in vivo; conditions: 100 mg/kg intragastric (positive control), 7 days, left lung homogenate, mean±SD
[2] = tested on: LPS-induced acute lung injury in mice; test: LPS-induced acute lung injury in mice, inflammatory factors in lung tissue homogenate; type: in vivo; conditions: 50 mg/kg intraperitoneal, 7 days, left lung homogenate, mean±SD

**Q.** With gentamicin sulfate [Gentamycin Sulfate] as the molecule, how does the IL-6 [1] read?
**A.** The IL-6 was 285.16 ± 32.71 pg/mL.

**Q.** And the IL-8 [1]?
**A.** Its IL-8 is 49.36 ± 10.01 pg/mL.

**Q.** And the TNF-α [1]?
**A.** The TNF-α was 834.10 ± 70.10 pg/mL.

**Q.** And the Tp [1]?
**A.** Its Tp is “significantly decreased and 197.05 ± 14.20 μg/mL”.

**Q.** What about the IL-6 ([1]; listed as gentamicin sulfate) of the same molecule?
**A.** Its IL-6 is “significantly decreased”.

**Q.** And the IL-8 ([1]; listed as gentamicin sulfate)?
**A.** Its IL-8 is “significantly decreased”.

**Q.** And the TNF-α ([1]; listed as gentamicin sulfate)?
**A.** Its TNF-α is “significantly decreased”.

**Q.** Which results are given for `C[C@@H]1C[C@H]2[C@@H]3CCC4=CC(=O)C=C[C@]4(C)[C@@]3(F)[C@@H](O)C[C@]2(C)[C@@]1(O)C(=O)CO` [Dexamethasone, dexamethasone]?
**A.** IL-6 [2]: 255.18 ± 35.63 pg/mL; IL-8 [2]: 52.7 ± 9.99 pg/mL; TNF-α [2]: 861.41 ± 71.04 pg/mL; Tp (Total protein) [2]: 202.40 ± 16.54 µg/mL
